Test results as given in patent US7148253B2, “4-thio coumarins” (priority 2002, dated 2006).
Where “and” joins values, the source holds several entries; their conditions need not be identical. Equal entries are not always repeated.

Experiments:
[1] = tested on: HCV RNA in stably HCV RNA-replicating cell line AVA5; test: Primary in vitro anti-HCV screen: intracellular HCV RNA levels in AVA5 cells (branched DNA assay); format: cell-based, Hepatitis C virus; settings: for HCV % Control / HCV Copies/ml: AVA5, duplicate cultures
Experimental: Primary in vitro anti-HCV screen. The antiviral activity of test compounds were assayed in the stably HCV RNA-replicating cell line, AVA5, derived by transfection of the human hepatoblastoma cell line, Huh7 (Blight, et al., 2000, Science 290: 1972). The test compounds were added to dividing cultures once daily for three days. The media was changed with each addition of the compounds. […] Intracellular HCV RNA levels and cytotoxicity are assessed 24 hours after the last dose of compound.
(§1) Assays were conducted using a single dose of test compound. Duplicate cultures for HCV RNA levels (on 48-well plates) and triplicate cultures for cytotoxicity (on 96-well plates) are used.
(§2) Intracellular HCV RNA levels were measured using a commercial assay (Veresant®, Bayer Diagnostics, Inc. Ross, et al. (2002) J. Virol. Meth. 101:159–168, Quantitation of hepatitic C virus RNA by third generation branched DNA-based signal amplification assay). Cytotoxicity was measured using an established neutral red dye uptake assay (Korba, B. E. and J. L. Gerin. 1992. Use of a standardized cell culture assay to determine activities of nucleoside analogs against hepatitis B virus relication. Antivir. Res. 19:55–70). HCV RNA levels in the treated cultures are expressed as a percentage of the mean levels of RNA detected in untreated cultures. A level of 30% or less, HCV RNA relative to control cultures may be considered to be a positive antiviral effect. A level of 50% or less, neutral red dye uptake relative to control cultures may be considered to be a cytotoxic effect.

[2] = Secondary dose-response assay: cytotoxicity (CC50); settings: human
Experimental: (§3) Dividing cultures of AVA5 cells are treated once daily for three days (media is changed with each addition of compound) with 4 concentrations of test compound (2 cultures per concentration). […] Intracellular HCV RNA levels and cytotoxicity are assessed 24 hours following the last treatment as described for the primary assays. The 50% and 90% effective antiviral concentrations (EC50, EC90) and the 50% cytotoxic concentrations (CC50) are calculated and used to generate Selectivity Indexes (S.I., CC50/EC50). An S.I of 10, or greater, may be considered to be a selective antiviral effect.
(§4) The values presented in Table 6 were calculated by linear regression analysis using data from all treated cultures. The standard deviation was calculated using the error of regression generated from the linear regression analysis.

[3] = tested on: AVA5 cell line (derived from human hepatoblastoma cell line Huh7); test: Primary screen cytotoxicity: neutral red dye uptake; format: cell-based; settings: for Neutral Red % Control / Neutral Red O.D.: AVA5
Experimental: (§5) Primary in vitro anti-HCV screen. The antiviral activity of test compounds were assayed in the stably HCV RNA-replicating cell line, AVA5, derived by transfection of the human hepatoblastoma cell line, Huh7 (Blight, et al., 2000, Science 290: 1972). The test compounds were added to dividing cultures once daily for three days. The media was changed with each addition of the compounds. Cultures generally start the assay at 30–50% confluence and reach confluence during the last day of treatment.
as §1, §2

[4] = as above; format: cell-based, human; settings: human; toxicity control, no antiviral activity; read-out: approximate CC90
Experimental: as §5, §1, §2

[5] = tested on: HCV replicons in AVA5 cell cultures; test: Secondary in vitro anti-HCV dose-response assay: intracellular HCV RNA; parameters: Intracellular HCV RNA Levels: dose or concentration left out as unconfirmed; settings: for Intracellular HCV RNA Levels: normalized to β-actin RNA; for S.I. (CC50/EC90): selectivity index, AVA5
Experimental: as §3, §4
Analysis of intracellular HCV RNA was performed 24 hours following the final treatment. A total of […] were treated a each concentration for each compound. HCV RNA levels were normalized to the level of β-actin RNA in each individual sample.

[6] = tested on: HCV RNA-replicating cell line AVA5; test: Normalized Viral Assay; format: cell-based, Hepatitis C virus
Experimental: as §5

AVA5 cell line [7] = test: MTS Cell Viability
AVA5 cells = test: Secondary dose-response assay: cytotoxicity (CC50); settings: AVA5, three days treatment; linear regression
Experimental: as §3, §4

AVA5 cell line [8] = test: ATP Cell Viability
[9] = AVA5, HCV RNA, linear regression

Row | SMILES | Intracellular HCV RNA Levels [5]; 10 [genomic copies/cell] | Intracellular HCV RNA Levels [5]; 30 [genomic copies/cell] | Intracellular HCV RNA Levels [5]; 100 [genomic copies/cell] | S.I. (CC50/EC90) [5] | Normalized Viral Assay ([6]; 1 μM) | Normalized Viral Assay ([6]; 5 μM) | Normalized Viral Assay ([6]; 10 μM) | MTS Cell Viability (AVA5 cell line [7]; 1 μM) | MTS Cell Viability (AVA5 cell line [7]; 5 μM) | MTS Cell Viability (AVA5 cell line [7]; 10 μM) | CC50 (AVA5 cells) [µM] | Intracellular HCV RNA Levels [5]; 300 [genomic copies/cell] | EC50 [5, 9] [µM] | EC90 [5, 9] [µM] | ATP Cell Viability (AVA5 cell line [8]; 1 μM) | ATP Cell Viability (AVA5 cell line [8]; 5 μM) | ATP Cell Viability (AVA5 cell line [8]; 10 μM) | further results
1 | NC(=O)c1ncn([C@@H]2O[C@H](CO)[C@@H](O)[C@H]2O)n1 [Ribavirin, ribavirin, reference compound] | 1379495 ± 69125 | 640505 ± 29715 | 250445 ± 5015 | 1.9 |  |  |  |  |  |  |  |  |  |  |  |  |  | HCV % Control ([1]; 100 μM): 13 % Control and 9 % Control; HCV Copies/ml ([1]; 100 μM): 180813 Copies/ml and 115331 Copies/ml; effect on HCV RNA (treatment controls, in words) ([1]; at the control concentrations used): induced loss of HCV RNA; CC50 at 3 days [2]: 54 ± 2.4 µM; Neutral Red % Control ([3]; 100 μM): 18 % Control and 17 % Control; Neutral Red O.D. ([3]; 100 μM): 0.394 O.D. and 0.378 O.D.; effect on cell viability (treatment control, in words) ([3]; compared with the loss of HCV RNA): reduction in cell viability was nearly equivalent; CC90 at 3 days [4]: ~100 µM; EC50 ([5]; Hepatitis C virus, Ava5): 29 ± 2.5 µM; EC90 ([5]; Hepatitis C virus, Ava5): 140 ± 11 µM
2 | O=c1cc(Sc2c(Cl)cccc2Cl)c2cc(F)ccc2o1 [compound 902] | 919880 ± 44000 | 332975 ± 6745 | 91645 ± 7385 | >611 | 41.92 | 12.03 | 5.61 | 116.05 | 86.70 | 84.52 | > 300 | 12940 ± 5640 | 0.491 ± 0.024 | 5.2 ± 0.6 | 97.96 | 101.74 | 62.95 | HCV % Control ([1]; 10 μM, HCV RNA as percentage of untreated cultures, listed as VQ_902): 9 % Control and 7 % Control; HCV Copies/ml ([1]; 10 μM, once daily for three days, listed as VQ_902): 124712 Copies/ml and 92446 Copies/ml; Neutral Red % Control ([3]; 10 μM, dye uptake relative to untreated cultures, listed as VQ_902): 95 % Control and 100 % Control; Neutral Red O.D. ([3]; 10 μM, listed as VQ_902): 2.122 O.D. and 2.228 O.D.
3 | O=c1cc(Sc2ccc(F)cc2F)c2cc(F)ccc2o1 [compound 910] | 1176970 ± 27620 | 494605 ± 6235 | 163575 ± 6325 | >214 | 32.93 | 9.51 | 3.41 | 105.74 | 92.64 | 79.43 | > 300 | 58165 ± 7635 | 1.4 ± 0.1 | 12 ± 1.1 | 115.34 | 97.48 | 84.78 | HCV % Control ([1]; 10 μM, HCV RNA as percentage of untreated cultures, listed as VQ_910): 20 % Control and 18 % Control; HCV Copies/ml ([1]; 10 μM, once daily for three days, listed as VQ_910): 266217 Copies/ml and 246717 Copies/ml; Neutral Red % Control ([3]; 10 μM, dye uptake relative to untreated cultures, listed as VQ_910): 99 % Control and 103 % Control; Neutral Red O.D. ([3]; 10 μM, listed as VQ_910): 2.214 O.D. and 2.293 O.D.
